Measured values reported in article PMC7905067, “Design and Immunological Evaluation of a Hybrid Peptide as a Potent TLR2 Agonist by Structure-Based Virtual Screening” (Frontiers in Cell and Developmental Biology, 2021).
“Also recorded” adds a separate entry of the source.

Columns and labels:
RAW264.7 cells = assay: In vitro immunomodulatory activity: cytokine secretion by RAW264.7 cells (ELISA); type: cell-based, murine; settings: 10 μg/mL, 12 h
Procedure: RAW264.7 cells were seeded at a density of 1.0 × 10^6 cell/mL and treated with (10 μg/mL) or without peptides in each well of a 6-well plate for 12 h at 37°C in a humidified incubator with 5% CO2. After treatment, TNF-α, IL-6 and IL-1β secretion in the cell supernatants was assessed using ELISA kits according to the manufacturer’s instructions.

[1] = system: CTX-immunosuppressed murine model; assay: Body weight and immune organ indices in CTX-immunosuppressed mice; type: in vivo, BALB/c mice; settings: CTX 80 mg/kg i.p. 3 days, peptide 10 mg/kg i.p. days 4-10, n = 12
Procedure: BALB/c mice (female, 6–8 weeks; Charles River, Beijing, China) used in this study were maintained in a specific-pathogen-free facility (55 ± 10% humidity and 22 ± 1°C) during the experiments. These experiments were conducted with approval from the Institutional Animal Care and Use Committee of China Agricultural University (certificate of the Beijing Laboratory Animal employee, ID: 18086).
(§1) After a 7-day adaptation period, the mice were randomly divided into five groups (n = 12 in each group): (1) control group: physiological saline was injected intraperitoneally once daily; (2) cyclophosphamide (CTX) group: CTX (80 mg/kg mouse weight; Sigma-Aldrich, St. Louis, MO, United States) was injected intraperitoneally once daily for the first 3 days. […] From days 4 to 10, peptide (10 mg/kg mouse weight) was injected intraperitoneally into mice once daily. Twenty-four hours after the last drug administration, all the mice were weighed and then euthanized, and their tissues and blood were collected for further study. The body weight index was calculated according to the formula:
Index(%)=finalbodyweight-initalbodyweight/initialbodyweight×100
The thymus and spleen indices were measured by the following formula:
Index(mg/g)=weightofthymusorspleen/bodyweight

[2] = system: T lymphocyte subpopulations (CD4 +, CD8 +), mouse peripheral blood; assay: Peripheral blood T lymphocyte subpopulations by flow cytometry; type: in vivo, BALB/c mice; settings: CTX 80 mg/kg i.p. 3 days; peptide 10 mg/kg i.p. days 4-10; three biological replicates
Procedure: as §1, with “formula: […]” for “formula:”
Erythrocytes were aseptically obtained from the different groups of mouse peripheral blood and lysed with RBC lysis buffer. The remaining cells were washed with PBS and resuspended in PBS. The cells were combined with peridinin-chlorophyll-protein complex (PerCP)-conjugated anti-mouse CD3 +, allophycocyanin (APC)-conjugated anti-mouse CD4 +, and fluorescein isothiocyanate (FITC)-conjugated anti-mouse CD8 + (BD Pharmingen, United States) for 30 min at 4°C. The T lymphocyte subpopulations were analyzed by flow cytometry.

[3] = system: MHC class II, mouse PBMCs; assay: DC maturation: MHC-II expression by flow cytometry; type: in vivo, BALB/c mice; settings: CTX 80 mg/kg i.p. 3 days; peptide 10 mg/kg i.p. days 4-10; three biological replicates
Procedure: as §1, with “formula: […]” for “formula:”
Mouse peripheral blood mononuclear cells (PBMCs) were obtained from the different groups of mice through Ficoll density gradient centrifugation. The cells were resuspended in PBS with 5% FBS and incubated with 10% (v/v) normal goat serum for 15 min at 4°C. The cells were combined with FITC-conjugated antibodies specific for MHC class II (MHC-II; BD Pharmingen, United States). The surface expression of MHC-II was determined by flow cytometry.

[4] = system: serum TNF-α, IL-6, and IL-1β; assay: Serum cytokines by ELISA in CTX-treated mice; type: in vivo, BALB/c mice; settings: CTX 80 mg/kg i.p. 3 days, peptide 10 mg/kg i.p. days 4-10, three biological replicates
Procedure: as §1, with “formula: […]” for “formula:”
(§2) Serum was collected from blood and then assayed by ELISA kits according to the protocol supplied by the manufacturer (eBioscience, San Diego, United States) to determine the secretion of IgG, IgA, IgM, TNF-α, IL-6, and IL-1β.

serum IgA, IgG, and IgM = assay: Serum immunoglobulins by ELISA in CTX-treated mice; type: in vivo, BALB/c mice; settings: CTX 80 mg/kg i.p. 3 days, peptide 10 mg/kg i.p. days 4-10, three biological replicates
Procedure: as §1, with “formula: […]” for “formula:”
as §2

TLR2, RAW264.7 cells [5] = assay: TLR2 blocking experiment (anti-mouse TLR2 C9A12, then LTPa); type: cell-based; settings: LTPa 10 μg/mL, 24 h; with or without TLR2 mAb (C9A12) 1 h before; ELISA
Procedure: For TLR2 blocking experiments, RAW264.7 cells were cultured in 24-well plates overnight at 37°C. The mouse IgG2a isotype control antibody or anti-mouse TLR2 (C9A12; InvivoGen, San Diego, CA, United States) was added to the cell cultures 1 h before being treated with LTPa for 24 h at 37°C. Then, the levels of TNF-α, IL-6, and IL-1β in the culture supernatant were analyzed.

TLR2 = assay: Surface plasmon resonance, immobilized TLR2; type: binding; settings: Biacore X100, CM5 chip, PBS containing 0.05% Tween 20; 0, 1.25, 2.5, 5, and 10 mM
Procedure: Surface plasmon resonance (SPR) experiments were carried out using a Biacore X100 instrument (GE Healthcare, Pittsburgh, PA, United States) by standard amine coupling. TLR2 (R&D Systems, Minneapolis, MN, United States) was amine-coupled to a Biacore CM5 sensor chip (Bio-Rad). The peptide was diluted to varying concentrations (0, 1.25, 2.5, 5, and 10 mM) in running buffer (PBS containing 0.05% Tween 20) and run sequentially over immobilized TLR2. Binding curves were processed for the initial injection alignment and baseline, and a reference-subtracted sensorgram was globally fitted to the curves to describe a homogeneous 1:1 model. Data analysis was conducted using ProteOn manager software (version 2.0). Data from the protein surfaces were grouped together to fit the association kinetic rate constant (Ka) and the dissociation rate constant (Kd). The equilibrium dissociation constant (KD) for the peptide-TLR2 interaction was calculated as follows: […]

TLR2, RAW264.7 cells [6] = assay: Cell surface TLR2 cluster formation by confocal laser-scanning microscopy; type: cell-based, mouse; settings: LTPa 10 μg/mL, 1 h, 37°C; clusters = fluorescence > 40 arbitrary units; three independent experiments
Procedure: RAW264.7 cells were treated with or without 10 μg/mL LTPa for 1 h at 37°C. The cells were then incubated (30 min, on ice) with anti-mouse monoclonal antibody TLR2 or isotype control (IgG) (eBioscience) before washing with PBS. Then, the cells were stained with a FITC–conjugated anti-mouse IgG antibody for 30 min on ice (Jackson Laboratories). After washing with PBS and fixing with paraformaldehyde, the cell nuclei were stained with DAPI (1:500 dilution in PBS) (Sigma-Aldrich). The cells were then imaged with the Leica TCS SP5 confocal system (Leica Microsystems Ltd.). LAS AF software was used to process the images and quantify the fluorescence. In addition, to generate a fluorescence histogram profile, a line was drawn along the cell surface. Fluorescence intensities higher than 40 arbitrary units (isotype control staining) were considered clusters of TLR2 molecules.

[7] = 37°C, ELISA, three independent experiments

- binding to TLR2 (SPR) (TLR2): could effectively bind to the TLR2
Sequence: IGKEFKRIVQRIKDFLRNLVPRTERKDVT [LTPa, hybrid peptide combining LL-37a and TP5]
- IL-1β secretion (RAW264.7 cells; [7]): remarkable increases
- IL-6 secretion (RAW264.7 cells; [7]): remarkable increases
- TNF-α secretion (RAW264.7 cells; [7]): remarkable increases
- secretion of TNF-α, IL-6, and IL-1β (comparison between peptides) (RAW264.7 cells; vs the other peptides tested): significantly increased the secretion of TNF-α, IL-6, and IL-1β in comparison with the other peptides tested
- spleen index [1]: significantly higher than those in the LL-37-treated and TP5-treated groups
- thymus index [1]: significantly higher than those in the LL-37-treated and TP5-treated groups
- bodyweight ([1]; CTX group vs control): improved bodyweight rapidly; also recorded: significantly higher than that in the parental peptide (LL-37 and TP5)-treated groups
- proportions of CD4 + and CD8 + T lymphocytes [2]: significantly higher than that in the LL-37-treated group and similar to that in the TP5-treated group
- expression of MHC-II [3]: increased by LTPa treatment; also recorded: significantly higher than that in the LL-37-treated and TP5-treated groups
- serum IL-1β level [4]: higher than those in the TP5- or LL-37-treated groups; also recorded: efficiently reversed the declines
- serum IL-6 level [4]: higher than those in the TP5- or LL-37-treated groups; also recorded: efficiently reversed the declines
- serum TNF-α level [4]: higher than those in the TP5- or LL-37-treated groups; also recorded: efficiently reversed the declines
- serum IgA level (serum IgA, IgG, and IgM): significantly higher total serum IgA, IgG, and IgM levels than mice in the TP5- or LL-37-treated groups
- serum IgG level (serum IgA, IgG, and IgM): significantly higher total serum IgA, IgG, and IgM levels than mice in the TP5- or LL-37-treated groups
- serum IgM level (serum IgA, IgG, and IgM): significantly higher total serum IgA, IgG, and IgM levels than mice in the TP5- or LL-37-treated groups
- TNF-α, IL-6, and IL-1β production (TLR2, RAW264.7 cells [5]): significantly caused increase levels of TNF-α, IL-6, and IL-1β
- TLR2 clusters per micrometer on the cell surface (TLR2, RAW264.7 cells [6]): significantly increased the number of major TLR2 clusters per micrometer on the cell surface
